This note sets out measurements from ChEMBL document CHEMBL5257089, “Gamabufotalin Induces Apoptosis and Cytoprotective Autophagy through the mTOR Signaling Pathway in Hepatocellular Carcinoma” (J Nat Prod, 2023).

Activity calls are given as the source filed them. The calls are words filed in the database; no cut-off is given here.

Series [1] concerns Hep 3B2. In words: Induction of autophagic flux in human Hep3B cells assessed as rescue of p62 at 10 uM incubated for 48 hrs in presence of gamabufotalin by Western blot analysis. The format is functional, cell-based. (In general: A western blot detects proteins with antibodies after separation by electrophoresis.)
For series [2], the system named is Huh-7. In words: Induction of apoptosis in human Huh-7 cells assessed as increase in cleaved caspase-3 level at 10 nM incubated for 48 hrs in presence of gamabufotalin by immunoblot analysis. The format is functional, cell-based.
In series [3] the test system is Huh-7. In words: Induction of apoptosis in human Huh-7 cells assessed as viable cells at 10 nM incubated for 48 hrs by Annexin V-FITC/PI staining based flow cytometry method (reference value: 91.5%). The conditions noted are these: read-out: Activity. The format is functional. (Flow cytometry measures light scatter and fluorescence of single cells or particles in a stream.)

The test system of series [4] is Hep 3B2. In words: Induction of apoptosis in human Hep3B cells assessed as increase in cleaved caspase-3 level at 10 nM incubated for 48 hrs in presence of gamabufotalin by immunoblot analysis. The format is functional, cell-based.
Series [5] concerns Huh-7. As to the kind of experiment: Induction of autophagic flux in human Huh-7 cells harbouring mCherry-egfp-LC3 assessed as reduction in number of red puncta ratio at 10 nM incubated for 15 mins in presence of gamabufotalin by laser scanning confocal microscopic analysis. The format is functional, cell-based.
Series [6] concerns Hep 3B2. In words: Induction of autophagic flux in human Hep3B cells harbouring mCherry-egfp-LC3 assessed as reduction in number of yellow puncta ratio at 10 nM incubated for 15 mins in presence of gamabufotalin by laser scanning confocal microscopic analysis. The format is functional, cell-based.
The subject of series [7] is Huh-7. In words: Induction of apoptosis in human Huh-7 cells assessed as increase in PARP level at 10 nM incubated for 48 hrs in presence of gamabufotalin by immunoblot analysis. The format is functional, cell-based.
Series [8] deals with Hep 3B2. In words: Induction of autophagic flux in human Hep3B cells assessed as increase in number of autophagic vesicles at 10 nM by transmission electron microscopic analysis. The format is functional, cell-based.
For series [9], the system named is Huh-7. As to the kind of experiment: Induction of apoptosis in human Huh-7 cells assessed as increase in cleaved PARP level at 10 nM incubated for 48 hrs in presence of gamabufotalin by immunoblot analysis. The format is functional, cell-based.
In series [10] the test system is Hep 3B2. In words: Induction of apoptosis in human Hep3B cells assessed as early apoptotic cells at 10 nM incubated for 48 hrs by Annexin V-FITC/PI staining based flow cytometry method (reference value: 1.3%). The format is functional.
The test system of series [11] is Hep 3B2. As to the kind of experiment: Induction of apoptosis in human Hep3B cells assessed as viable cells at 25 nM incubated for 48 hrs by Annexin V-FITC/PI staining based flow cytometry method (Rvb =95.7%). The format is functional. The following applies: read-out: Activity.
Series [12] deals with Huh-7. As to the kind of experiment: Induction of apoptosis in human Huh-7 cells assessed as early apoptotic cells at 25 nM incubated for 48 hrs by Annexin V-FITC/PI staining based flow cytometry method (reference value: 1.7%). The format is functional.
In series [13] the test system is Huh-7. As to the kind of experiment: Induction of apoptosis in human Huh-7 cells assessed as necrotic cells at 15 nM incubated for 48 hrs by Annexin V-FITC/PI staining based flow cytometry method (reference value: 95.4%). The format is functional.
Series [14] has as its system Huh-7. In words: Induction of autophagic flux in human Huh-7 cells assessed as increase in LC3-I expression at upto 25 nM incubated for 48 hrs by Western blot analysis. The format is functional, cell-based.
In series [15] the test system is Hep 3B2. In words: Antitumor activity against human Hep3B cells xenografted in nude mouse model assessed as upregulation of bax expression at 5 mg/kg,ip administered every second day for 3 weeks by Western blot analysis. The format is functional, organism-based. (In general: A xenograft is tissue or cells of one species grown in another, often human tumour cells in immunodeficient mice.)

The nature of series [16]: Toxicity in mouse assessed as effect on body weight at 5 mg/kg,ip administered every second day for 3 weeks. The format is organism-based. The following applies: in vivo, 504 h.
The subject of series [17] is Hep 3B2. As to the kind of experiment: Induction of morphological changes in human Hep3B cells assessed as round cell morphology at upto 25 nM incubated for 48 hrs by bright field imaging analysis. The format is functional, cell-based.
Series [18] concerns Huh-7. As to the kind of experiment: Induction of apoptosis in human Huh-7 cells assessed as early apoptotic cells at 20 nM incubated for 48 hrs by Annexin V-FITC/PI staining based flow cytometry method (reference value: 1.7%). The format is functional.
Series [19] can be described thus: Toxicity in mouse assessed as effect on kidney at 5 mg/kg,ip administered every second day for 3 weeks by H and E staining based microscopic method. The format is organism-based. The conditions noted are these: in vivo, 504 h.
Series [20] has as its system Hep 3B2. In words: Induction of apoptosis in human Hep3B cells assessed as […] level at upto 25 nM incubated for 48 hrs by Western blot analysis. The format is functional, cell-based.
The test system of series [21] is Huh-7. As to the kind of experiment: Induction of apoptosis in human Huh-7 cells assessed as necrotic cells at 25 nM incubated for 48 hrs by Annexin V-FITC/PI staining based flow cytometry method (reference value: 1.9%). The format is functional.
The subject of series [22] is Huh-7. In words: Induction of apoptosis in human Huh-7 cells assessed as early apoptotic cells at 25 nM incubated for 48 hrs by Annexin V-FITC/PI staining based flow cytometry method (reference value: 4.3%). The format is functional.
Series [23] concerns Huh-7. As to the kind of experiment: Induction of autophagy in human Huh-7 cells harbouring mCherry-egfp-LC3 assessed as reduction in yellow puncta ratio at 25 nM incubated for 15 mins in presence of 4,6-dimorpholino-N-(4-nitrophenyl)-1,3,5-triazin-2-amine by laser scanning confocal microscopic analysis. The format is functional, cell-based.
Series [24] deals with Huh-7. In words: Induction of autophagic flux in human Huh-7 cells harbouring mCherry-egfp-LC3 assessed as reduction in number of yellow puncta ratio at 25 nM incubated for 15 mins in presence of chloroquine by laser scanning confocal microscopic analysis. The format is functional, cell-based.
The subject of series [25] is Huh-7. As to the kind of experiment: Induction of autophagy in human Huh-7 cells assessed as upregulation of p62 at 25 uM incubated for 48 hrs in presence of 4,6-dimorpholino-N-(4-nitrophenyl)-1,3,5-triazin-2-amine by immunoblot analysis. The format is functional, cell-based.
The subject of series [26] is Hep 3B2. In words: Induction of apoptosis in human Hep3B cells assessed as reduction in Bcl-2 level at 25 nM incubated for 48 hrs in presence of chloroquine by immunoblot analysis. The format is functional, cell-based.
The test system of series [27] is Hep 3B2. In words: Induction of apoptosis in human Hep3B cells assessed as early apoptotic cells at 25 nM incubated for 48 hrs by Annexin V-FITC/PI staining based flow cytometry method (reference value: 3.9%). The format is functional.
Series [28] deals with Huh-7. As to the kind of experiment: Induction of autophagic flux in human Huh-7 cells assessed as increase in LC3-II expression at upto 25 nM incubated for 48 hrs by Western blot analysis. The format is functional, cell-based.
In series [29] the test system is Huh-7. In words: Induction of apoptosis in human Huh-7 cells assessed as necrotic cells at 25 nM incubated for 48 hrs in presence of chloroquine by Annexin V-FITC/PI staining based flow cytometry method (reference value: 1.0%). The format is functional.
Series [30] has as its system Hep 3B2. As to the kind of experiment: Induction of apoptosis in human Hep3B cells assessed as upregulation of cleaved PARP level […] incubated for 48 hrs in presence of 4,6-dimorpholino-N-(4-nitrophenyl)-1,3,5-triazin-2-amine by immunoblot analysis. The format is functional, cell-based.
Series [31] relates to Huh-7. In words: Inhibition of colony formation in human Huh-7 cells at upto 25 uM incubated for 48 hrs by crystal violet staining based analysis. The format is functional, cell-based.
For series [32], the system named is Hep 3B2. In words: Induction of apoptosis in human Hep3B cells assessed as late apoptotic cells at 20 nM incubated for 48 hrs by Annexin V-FITC/PI staining based flow cytometry method (reference value: 2.6%). The format is functional.
The subject of series [33] is Huh-7. In words: Induction of autophagy in human Huh-7 cells harbouring mCherry-egfp-LC3 assessed as reduction in red puncta ratio at 25 nM incubated for 15 mins in presence of 4,6-dimorpholino-N-(4-nitrophenyl)-1,3,5-triazin-2-amine by laser scanning confocal microscopic analysis. The format is functional, cell-based.
The test system of series [34] is Huh-7. In words: Induction of autophagic flux in human Huh-7 cells harbouring mCherry-egfp-LC3 assessed as increase in yellow puncta at 25 nM incubated for 15 mins by laser scanning confocal microscopic analysis. The format is functional, cell-based.

Turning to `CCN(CC)CCCC(C)Nc1ccnc2cc(Cl)ccc12` (centres undefined) [CHLOROQUINE], the result in series [1], in series [2], in series [4], in series [5], in [6] and in [7] was Active. In addition, the outcome in series [8] and in series [9] was Active. Besides, the viability at 0.01 µM in [3] is 90.3%. For the same compound, in series [10], the Activity is 1.5%.

Turning to `C[C@]12CC[C@H](O)C[C@H]1CC[C@@H]1[C@@H]2[C@H](O)C[C@]2(C)[C@@H](c3ccc(=O)oc3)CC[C@]12O` [GAMABUFOTALIN], the viability at 0.025 µM in [11] was 77.2%. The Activity is 5.6% in [12]; 67.6% in series [13]; “Non-Toxic” in [16]; 5.5% in series [18]; “Non-Toxic” in [19]; 2.1% in series [21]. Besides, the Activity in [22] was 8.7%; in [27], 9.3%; in [29], 3.4%; in series [32], 5.2%. In addition, the outcome in series [14], in [15], in series [17], in series [20], in [23] and in series [24] was Active. Also, the result in series [25], in series [26], in series [28], in series [30], in series [33] and in [34] was Active. In addition, the inhibition result in [31] is “Active”.
